In PubChem BioAssay AID1963427 (Molecular Pharmacology Branch, DTP, NCI, 2024):

Test system: 317291-083-R-J1-PDC complex spheroid growth
Experiment: Anticancer human tumor 317291-083-R-J1-PDC patient-derived soft tissue sarcoma cell line growth inhibition [Asc]
Conditions: for IC50: curve of first compound; for viability, T/C: stronger effect = lower value
Summary of the method: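 Tumor cells were grown as complex spheroids with human endothelial cells (HUVEC) and human mesenchymal stem cells as stroma. Agents were tested alone and in combination, in half-log steps down from the clinical Cmax, or from 10 microM where Cmax was unknown.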

[1] = second compound 0.00316 µM, first compound 0.0316 µM
[2] = second compound 0.00316 µM, first compound 0.1 µM
[3] = second compound 0.00316 µM, first compound 0.316 µM
[4] = second compound 0.00316 µM, first compound 1 µM
[5] = second compound 0.00316 µM, first compound 3.16 µM
[6] = second compound 0.00316 µM, first compound 10 µM
[7] = second compound 0.01 µM, first compound 0.0316 µM
[8] = second compound 0.01 µM, first compound 0.1 µM
[9] = second compound 0.01 µM, first compound 0.316 µM
[10] = second compound 0.01 µM, first compound 1 µM
[11] = second compound 0.01 µM, first compound 3.16 µM
[12] = second compound 0.01 µM, first compound 10 µM
[13] = second compound 0.0316 µM, first compound 0.0316 µM
[14] = second compound 0.0316 µM, first compound 0.1 µM
[15] = second compound 0.0316 µM, first compound 0.316 µM
[16] = second compound 0.0316 µM, first compound 1 µM
[17] = second compound 0.0316 µM, first compound 3.16 µM
[18] = second compound 0.0316 µM, first compound 10 µM
[19] = second compound 0.1 µM, first compound 0.0316 µM
[20] = second compound 0.1 µM, first compound 0.1 µM
[21] = second compound 0.1 µM, first compound 0.316 µM
[22] = second compound 0.1 µM, first compound 1 µM
[23] = second compound 0.1 µM, first compound 3.16 µM
[24] = second compound 0.1 µM, first compound 10 µM
[25] = second compound 0.316 µM, first compound 0.0316 µM
[26] = second compound 0.316 µM, first compound 0.1 µM
[27] = second compound 0.316 µM, first compound 0.316 µM
[28] = second compound 0.316 µM, first compound 1 µM
[29] = second compound 0.316 µM, first compound 3.16 µM
[30] = second compound 0.316 µM, first compound 10 µM
[31] = second compound 1 µM, first compound 0.0316 µM
[32] = second compound 1 µM, first compound 0.1 µM
[33] = second compound 1 µM, first compound 0.316 µM
[34] = second compound 1 µM, first compound 1 µM
[35] = second compound 1 µM, first compound 3.16 µM
[36] = second compound 1 µM, first compound 10 µM
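Further: compound exposure lasted seven days after spheroids formed for three days.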
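Wherever viability, T/C is given: 100% = DMSO vehicle control wells.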

C#Cc1c(F)ccc2cc(O)cc(-c3ncc4c(N5CC6CCC(C5)N6)nc(OCC56CCCN5CC(F)C6)nc4c3F)c12 (stereo not drawn) + CNC(C)C(=O)NC1CN(S(=O)(=O)c2cccc(S(=O)(=O)N3CCC4CCC(C(=O)NC(c5ccccc5)c5ccccc5)N4C(=O)C(NC(=O)C(C)NC)C3)c2)CCC2CCC(C(=O)NC(c3ccccc3)c3ccccc3)N2C1=O
IC50 (second compound 0.00316 µM): 6.74 µM | IC50 (second compound 0.01 µM): 8.01 µM | IC50 (second compound 0.0316 µM): 4.12 µM | IC50 (second compound 0.1 µM): 3.61 µM | IC50 (second compound 0.316 µM): < 0.0316 µM | IC50 (second compound 1 µM): < 0.0316 µM | viability, T/C [1]: 76.3% | viability, T/C [2]: 75.7% | viability, T/C [3]: 72.3% | viability, T/C [4]: 84.3% | viability, T/C [5]: 87% | viability, T/C [6]: 34.8% | viability, T/C [7]: 84.2% | viability, T/C [8]: 71.6% | viability, T/C [9]: 57.8% | viability, T/C [10]: 81.4% | viability, T/C [11]: 76% | viability, T/C [12]: 44.3% | viability, T/C [13]: 67.5% | viability, T/C [14]: 66.6% | viability, T/C [15]: 59.3% | viability, T/C [16]: 63.9% | viability, T/C [17]: 58.1% | viability, T/C [18]: 23.5% | viability, T/C [19]: 54.9% | viability, T/C [20]: 55% | viability, T/C [21]: 53.3% | viability, T/C [22]: 50.8% | viability, T/C [23]: 59% | viability, T/C [24]: 15.1% | viability, T/C [25]: 42.9% | viability, T/C [26]: 46.2% | viability, T/C [27]: 44.3% | viability, T/C [28]: 31.9% | viability, T/C [29]: 43.6% | viability, T/C [30]: 10.6% | viability, T/C [31]: 31.1% | viability, T/C [32]: 29% | viability, T/C [33]: 29.4% | viability, T/C [34]: 24.4% | viability, T/C [35]: 26.2% | viability, T/C [36]: 8.59%

C=C(F)C(=O)N1CCN(c2nc(OCC3CCCN3C)nc3c2CCN(c2cccc4cccc(Cl)c24)C3)CC1CC#N (stereo not drawn) + CNC(C)C(=O)NC1CN(S(=O)(=O)c2cccc(S(=O)(=O)N3CCC4CCC(C(=O)NC(c5ccccc5)c5ccccc5)N4C(=O)C(NC(=O)C(C)NC)C3)c2)CCC2CCC(C(=O)NC(c3ccccc3)c3ccccc3)N2C1=O
IC50 (second compound 0.00316 µM): 0.948 µM | IC50 (second compound 0.01 µM): 1.03 µM | IC50 (second compound 0.0316 µM): 0.559 µM | IC50 (second compound 0.1 µM): 0.071 µM | IC50 (second compound 0.316 µM): < 0.0316 µM | IC50 (second compound 1 µM): < 0.0316 µM | viability, T/C [1]: 90.9% | viability, T/C [2]: 69.3% | viability, T/C [3]: 67% | viability, T/C [4]: 54.3% | viability, T/C [5]: 25% | viability, T/C [6]: 0.13% | viability, T/C [7]: 66.7% | viability, T/C [8]: 61.8% | viability, T/C [9]: 68.5% | viability, T/C [10]: 50.4% | viability, T/C [11]: 9.6% | viability, T/C [12]: 0.1% | viability, T/C [13]: 62% | viability, T/C [14]: 54.2% | viability, T/C [15]: 46.8% | viability, T/C [16]: 46.6% | viability, T/C [17]: 8.82% | viability, T/C [18]: 0.1% | viability, T/C [19]: 59.1% | viability, T/C [20]: 39.9% | viability, T/C [21]: 38.5% | viability, T/C [22]: 38.2% | viability, T/C [23]: 11.7% | viability, T/C [24]: 0.1% | viability, T/C [25]: 38.1% | viability, T/C [26]: 29.4% | viability, T/C [27]: 35% | viability, T/C [28]: 29.3% | viability, T/C [29]: 13.1% | viability, T/C [30]: 0.44% | viability, T/C [31]: 37.9% | viability, T/C [32]: 32.2% | viability, T/C [33]: 32% | viability, T/C [34]: 19.4% | viability, T/C [35]: 9.16% | viability, T/C [36]: 0.2%

C=CC(=O)N1CCN(c2nc(=O)n(-c3c(C)ccnc3C(C)C)c3nc(-c4c(O)cccc4F)c(F)cc23)C(C)C1 (stereo not drawn) + CNC(C)C(=O)NC1CN(S(=O)(=O)c2cccc(S(=O)(=O)N3CCC4CCC(C(=O)NC(c5ccccc5)c5ccccc5)N4C(=O)C(NC(=O)C(C)NC)C3)c2)CCC2CCC(C(=O)NC(c3ccccc3)c3ccccc3)N2C1=O
IC50 (second compound 0.00316 µM): 9.72 µM | IC50 (second compound 0.01 µM): > 10 µM | IC50 (second compound 0.0316 µM): 5.56 µM | IC50 (second compound 0.1 µM): 4.4 µM | IC50 (second compound 0.316 µM): 1.09 µM | IC50 (second compound 1 µM): < 0.0316 µM | viability, T/C [1]: 96% | viability, T/C [2]: 100% | viability, T/C [3]: 85.2% | viability, T/C [4]: 91.3% | viability, T/C [5]: 93.5% | viability, T/C [6]: 48.9% | viability, T/C [7]: 92.9% | viability, T/C [8]: 77.4% | viability, T/C [9]: 83.3% | viability, T/C [10]: 97.1% | viability, T/C [11]: 62.5% | viability, T/C [12]: 56.9% | viability, T/C [13]: 93.1% | viability, T/C [14]: 70.1% | viability, T/C [15]: 77.4% | viability, T/C [16]: 73.7% | viability, T/C [17]: 71.7% | viability, T/C [18]: 28.8% | viability, T/C [19]: 68.7% | viability, T/C [20]: 54.2% | viability, T/C [21]: 59.9% | viability, T/C [22]: 62.8% | viability, T/C [23]: 57.6% | viability, T/C [24]: 30.4% | viability, T/C [25]: 57.2% | viability, T/C [26]: 42.9% | viability, T/C [27]: 62.1% | viability, T/C [28]: 48.9% | viability, T/C [29]: 39% | viability, T/C [30]: 23.5% | viability, T/C [31]: 49% | viability, T/C [32]: 28.6% | viability, T/C [33]: 32.2% | viability, T/C [34]: 35% | viability, T/C [35]: 30.6% | viability, T/C [36]: 13.5%

CCN1C(C(=O)NC23CCC(C(=O)O)(CC2)CC3)C(c2cccc(Cl)c2F)C2(C(=O)Nc3cc(Cl)ccc32)C12CCCCC2 (stereo not drawn) + CNC(C)C(=O)NC1CN(S(=O)(=O)c2cccc(S(=O)(=O)N3CCC4CCC(C(=O)NC(c5ccccc5)c5ccccc5)N4C(=O)C(NC(=O)C(C)NC)C3)c2)CCC2CCC(C(=O)NC(c3ccccc3)c3ccccc3)N2C1=O
IC50 (second compound 0.00316 µM): > 3 µM | IC50 (second compound 0.01 µM): > 3 µM | IC50 (second compound 0.0316 µM): > 3 µM | IC50 (second compound 0.1 µM): > 3 µM | IC50 (second compound 0.316 µM): < 0.00949 µM | IC50 (second compound 1 µM): < 0.00949 µM | viability, T/C (second compound 0.00316 µM, first compound 0.00949 µM): 86% | viability, T/C (second compound 0.00316 µM, first compound 0.03 µM): 113% | viability, T/C (second compound 0.00316 µM, first compound 0.0949 µM): 100% | viability, T/C (second compound 0.00316 µM, first compound 0.3 µM): 108% | viability, T/C (second compound 0.00316 µM, first compound 0.949 µM): 84.6% | viability, T/C (second compound 0.00316 µM, first compound 3 µM): 65.1% | viability, T/C (second compound 0.01 µM, first compound 0.00949 µM): 68.5% | viability, T/C (second compound 0.01 µM, first compound 0.03 µM): 95.9% | viability, T/C (second compound 0.01 µM, first compound 0.0949 µM): 83.7% | viability, T/C (second compound 0.01 µM, first compound 0.3 µM): 71.9% | viability, T/C (second compound 0.01 µM, first compound 0.949 µM): 63.3% | viability, T/C (second compound 0.01 µM, first compound 3 µM): 56.1% | viability, T/C (second compound 0.0316 µM, first compound 0.00949 µM): 82.5% | viability, T/C (second compound 0.0316 µM, first compound 0.03 µM): 85.6% | viability, T/C (second compound 0.0316 µM, first compound 0.0949 µM): 79.2% | viability, T/C (second compound 0.0316 µM, first compound 0.3 µM): 78.1% | viability, T/C (second compound 0.0316 µM, first compound 0.949 µM): 63.8% | viability, T/C (second compound 0.0316 µM, first compound 3 µM): 60.5% | viability, T/C (second compound 0.1 µM, first compound 0.00949 µM): 55.4% | viability, T/C (second compound 0.1 µM, first compound 0.03 µM): 61.9% | viability, T/C (second compound 0.1 µM, first compound 0.0949 µM): 66.2% | viability, T/C (second compound 0.1 µM, first compound 0.3 µM): 67.3% | viability, T/C (second compound 0.1 µM, first compound 0.949 µM): 60% | viability, T/C (second compound 0.1 µM, first compound 3 µM): 42.5% | viability, T/C (second compound 0.316 µM, first compound 0.00949 µM): 47.5% | viability, T/C (second compound 0.316 µM, first compound 0.03 µM): 55.3% | viability, T/C (second compound 0.316 µM, first compound 0.0949 µM): 45.5% | viability, T/C (second compound 0.316 µM, first compound 0.3 µM): 46.7% | viability, T/C (second compound 0.316 µM, first compound 0.949 µM): 49.4% | viability, T/C (second compound 0.316 µM, first compound 3 µM): 45.2% | viability, T/C (second compound 1 µM, first compound 0.00949 µM): 41.2% | viability, T/C (second compound 1 µM, first compound 0.03 µM): 31.3% | viability, T/C (second compound 1 µM, first compound 0.0949 µM): 32.4% | viability, T/C (second compound 1 µM, first compound 0.3 µM): 35.4% | viability, T/C (second compound 1 µM, first compound 0.949 µM): 30.5% | viability, T/C (second compound 1 µM, first compound 3 µM): 27.8%
